One test has as its target T1, rabbit lung ACE (Oryctolagus cuniculus, UniProt P12822).
T1 sequence (P12822 34-1310): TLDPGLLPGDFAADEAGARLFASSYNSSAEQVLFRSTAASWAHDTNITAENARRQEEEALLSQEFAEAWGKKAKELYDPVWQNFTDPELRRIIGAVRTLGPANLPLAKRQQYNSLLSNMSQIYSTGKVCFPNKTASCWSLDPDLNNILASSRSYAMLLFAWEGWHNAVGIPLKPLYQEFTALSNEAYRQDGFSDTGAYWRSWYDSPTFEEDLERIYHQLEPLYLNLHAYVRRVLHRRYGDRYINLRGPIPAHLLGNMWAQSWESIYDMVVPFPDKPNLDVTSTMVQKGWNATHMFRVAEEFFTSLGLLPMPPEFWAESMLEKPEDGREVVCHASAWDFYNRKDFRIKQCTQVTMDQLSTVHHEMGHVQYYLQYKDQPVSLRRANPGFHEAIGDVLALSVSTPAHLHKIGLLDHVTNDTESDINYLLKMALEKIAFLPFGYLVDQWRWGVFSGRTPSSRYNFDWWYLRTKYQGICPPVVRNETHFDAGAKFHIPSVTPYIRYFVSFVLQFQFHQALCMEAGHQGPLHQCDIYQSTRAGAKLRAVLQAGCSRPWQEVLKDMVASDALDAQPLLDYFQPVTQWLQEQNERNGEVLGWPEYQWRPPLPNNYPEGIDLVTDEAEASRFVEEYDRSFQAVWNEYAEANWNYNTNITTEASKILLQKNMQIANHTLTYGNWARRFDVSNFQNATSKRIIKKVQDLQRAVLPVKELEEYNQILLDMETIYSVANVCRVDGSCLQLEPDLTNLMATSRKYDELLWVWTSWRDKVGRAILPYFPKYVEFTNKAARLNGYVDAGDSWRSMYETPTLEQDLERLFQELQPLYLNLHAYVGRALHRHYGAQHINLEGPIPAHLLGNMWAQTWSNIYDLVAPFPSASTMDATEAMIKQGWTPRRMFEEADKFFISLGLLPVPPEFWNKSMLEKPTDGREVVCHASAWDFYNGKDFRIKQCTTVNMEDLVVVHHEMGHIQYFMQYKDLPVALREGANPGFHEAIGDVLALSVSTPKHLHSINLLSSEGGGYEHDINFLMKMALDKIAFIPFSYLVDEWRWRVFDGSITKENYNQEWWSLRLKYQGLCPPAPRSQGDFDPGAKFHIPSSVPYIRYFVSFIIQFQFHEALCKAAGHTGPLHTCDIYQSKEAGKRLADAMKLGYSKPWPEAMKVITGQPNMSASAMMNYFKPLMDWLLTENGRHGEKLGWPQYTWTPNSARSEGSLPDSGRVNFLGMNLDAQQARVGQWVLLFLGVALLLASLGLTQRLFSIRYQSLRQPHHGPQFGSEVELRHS
Nature of the test: ACE inhibitory assay. In kind it is biochemical. Particulars: IC50 against ACE, positive control; performed in this study.

The test system of another test is Candida rugosa lipase. The note with it: read-out: IC50 against lipase; positive control; ref Chupeerach et al., 2022[35]; cited from earlier work.

By IC50 is commonly meant the concentration that inhibits the measured activity by half. Compound `NCCCC[C@H](N[C@@H](CCc1ccccc1)C(=O)O)C(=O)N1CCC[C@H]1C(=O)O` [Lisinopril, lisinopril] had an IC50 on rabbit lung ACE of 0.00179 µM.
`CCCCCCCCCCC[C@@H](C[C@@H]1OC(=O)[C@H]1CCCCCC)OC(=O)[C@H](CC(C)C)NC=O` [Orlistat, orlistat]: the IC50 with Candida rugosa lipase was 7.94 µM.

The values are drawn from paper PMC11467430 (Scientific Reports, 2024).
